Literature values as cited in US10166194B2, “Hydrocortisone controlled release formulation” (Diurnal Limited, priority 2012, dated 2019).

half-life: ca. 3 hours
Compound: C[C@]12CCC(=O)C=C1CC[C@@H]1[C@@H]2[C@@H](O)C[C@@]2(C)[C@H]1CC[C@]2(O)C(=O)CO [Hydrocortisone]
